“Also recorded” adds a separate entry of the source.
Assays:
Type in all cases: cell-based, rat
E18 midbrain neurons = assay: MPP+-induced neurite degeneration of midbrain neurons; conditions: DIV7 E18 midbrain neurons, 100 μM MPP+ 16-18 hours, with 10 μM peptide
Procedure: To test whether the triggering disassembly of stress granules would be protective in Parkinson's and Alzheimer's disease, the inventors employed 1-methyl-4-phenylpyridinium (MPP+)-induced and amyloid β (Aβ)-mediated neurotoxicity models. Rat embryonic day 18 (E18) midbrain neurons cultured for 7 days were treated for 16-18 hours with 100 μM MPP+, see FIGS. 1A and B, while E18 cortical neurons were treated with 1 μM Aβ oligomer, see FIGS. 2A-2B, with or without 10 μM G3BP1 190-208 or 168-189 peptide. As a control, the inventors used non-treated neurons.
FIG. 1: Cell permeable G3BP1 190-208 peptide rescues MPP+-induced degeneration of midbrain neurons. (A) Representative images for NF-labeled (white) DIV7 E18 midbrain neurons. DIV7 midbrain cultures were treated with 100 μM MPP+ (ii) or control (i) and […] 190-208 G3BP1 peptide (iv) or 168-189 control peptide (iii) [scale bar=100 μm]. (B) Quantification of neurite degeneration in midbrain neurons in control or 100 μM MPP+-treated neurons after addition of 190-208 G3BP1 or 168-189 control peptide. […] (N≥95 over 3 cultures; by one-way ANOVA with Tukey HSD post-hoc).

DRG neurons = assay: Axon growth in dissociated DRG cultures
Procedure: Cell culture. For primary neuronal cultures, L4-5 DRG were harvested in Hybernate-A medium (BrainBits) and then dissociated as described. After centrifugation and washing in DMEM/F12 (Life Technologies), cells were resuspended in DMEM/F12, 1×N1 supplement (Sigma), 10% fetal bovine serum (Hyclone), and 10 μM cytosine arabinoside (Sigma). Dissociated DRGs were plated immediately on laminin/poly-L-lysine-coated coverslips or transfected (see below) and then plated on coated coverslips.
[…] Neurite outgrowth was assessed 24 h after addition of peptides. For the cortical cultures, 10 μM peptide was applied to the axonal compartment at 3 d in vitro (DIV) and axonal growth was assessed at 6 DIV. For iMotor neurons, 20 μM peptides were immediately added and neurite growth was assessed 24 h later.
For neurite outgrowth, images from 60 h DRG cultures were analyzed for neurite outgrowth using WIS-Neuromath. Axon morphology was visualized using GFP and/or NF immunofluorescence as described. Differentiated hiPSC neuron image acquisition and neurite length quantification was performed using Arrayscan XTI (Thermo Fisher).

E18 cortical neurons = assay: Axon growth of cortical neurons in microfluidic devices; conditions: 10 μM peptide applied to axonal compartment at 3 DIV, assessed at 6 DIV
Procedure: For cortical neuron cultures, E18 cortices were dissected in Hibernate E (BrainBits) and dissociated using the Neural Tissue Dissociation kit (Miltenyi Biotec). For this, minced cortices were incubated in a pre-warmed enzyme mix at 37° C. for 15 min; tissues were then triturated and applied to a 40 μm cell strainer.
After washing and centrifugation, neurons were seeded at a density of 1×10^5 cells per poly-D-lysine-coated microfluidic device (Xona Microfluidics). NbActive-1 medium (BrainBits) supplemented with 100 U/ml of Penicillin-Streptomycin (Life Technologies), 2 mM L-glutamine (Life Technologies), and 1×N21 supplement (R&D Systems) was used as culture medium.
For peptide treatments, 10 μM Tat-fused peptides were added to dissociated DRG cultures at 2 or 12 h after plating. Neurite outgrowth was assessed 24 h after addition of peptides. For the cortical cultures, 10 μM peptide was applied to the axonal compartment at 3 d in vitro (DIV) and axonal growth was assessed at 6 DIV. For iMotor neurons, 20 μM peptides were immediately added and neurite growth was assessed 24 h later.

[1] = test system: axonal protein synthesis in DRG neurons; assay: Puromycinylation assay of axonal protein synthesis; conditions: compared to untreated and 168-189 peptide-treated cultures
Procedure: Puromycinylation assay. To visualize newly synthesized proteins in cultured neurons, the inventors used the Click-iT® Plus OPP Protein Synthesis Assay Kit per manufacturer's instructions (Invitrogen/Life Technologies). Briefly, 3 DIV cultures were incubated with 20 μM0-propargyl-puromycin (OPP) for 30 min at 37° C. OPP labeled proteins were detected by crosslinking with Alexa Fluor-594 picolyl azide molecule. Coverslips were then mounted with Prolong Gold Antifade (Invitrogen) and imaged with Leica DMI6000 epifluorescent microscope as above. ImageJ was used to quantify the Puromycinylation signals in distal axons and cell bodies.

[2] = test system: G3BP1, TIA1, FMRP, FXR, TDP43 and FUS-TLS aggregates in E18 cortical neurons; assay: RNA binding protein aggregates along axons of Aβ oligomer-treated cortical neurons; conditions: 1 μM Aβ oligomer 2 hours, then peptide for additional 4 hours
Procedure: The data in FIGS. 13A-F and 14A-F raise the possibility that stress granule targeting therapies like the cell permeable G3BP1 190-208 peptide may decrease or even prevent loss of neurons across different types of neurodegenerative diseases. To address this possibility, the current disclosure asked if the cell permeable G3BP1 190-208 peptide could disassemble pathological protein aggregates in neurons. For this, 7 day cortical neuron cultures were treated with 1 μM A[…] oligomer for 2 hours and then treated with cell permeable G3BP1 190-208 peptide or a scramble sequence cell permeable peptide for an additional 4 hours. […] Thus, the cell permeable G3BP1 190-208 peptide can not only prevent RNA binding protein aggregation in axons after exposure to neurotoxins associated AD and PD, but it can also trigger disassembly of these pathological aggregates after they begin to form.
Representative confocal images for G3BP1. […] Quantifications for co:localization of FMRP, FXR, TDP43, FUS-TLS and TIA1 with G3BP1 in axons of E18 cortical neurons treated as in C are shown as average Pearson's coefficient±SEM (N≥120 aggregates over three repetitions and *p≤0.01, **p≤0.005, ***p≤0.001 for entire population distributions by Fishers exact test for FIG. 15B and FIG. 15D; […] neurons over 3 repetitions and *p≤0.01 **p≤0.005, ***p≤0.001 by one-way ANOVA with Tukey HSD post-hoc for FIG. 15E).

[3] = 10 μM Tat-fused peptide added to DRG cultures immediately after plating

YGNKKNNNQNNN-VVEPEPEPEPEPEPEPVSE [G3BP1 190-208 peptide]
neurite degeneration (E18 midbrain neurons; listed as 190-208 peptide): significant decrease in MPP+-induced degeneration
neurite degeneration (E18 midbrain neurons; listed as G3BP1 190-208): prevented neurite degeneration
axon length (DRG neurons; [3]): increased axon length
number of neurites per neuron (DRG neurons; [3]): increased the number of neurites per neuron
axon length (DRG neurons; delayed application (peptide added at 12 h, assessed at 36 h), naive and preinjured DRG neurons): significantly increased axon length
axon growth (E18 cortical neurons): significant increase in axon growth
puromycin incorporation in DRG axons (axonal protein synthesis) [1]: significantly increased puromycin incorporation
puromycin incorporation in DRG axons (axonal protein synthesis) ([1]; listed as 190-208 peptide): significant increase in axonal protein synthesis
TIA1, FMRP, FXR, TDP43 and FUS-TLS colocalization with G3BP1 [2]: significantly decreased
size of G3BP1, TIA1, FMRP, FXR, TDP43 and FUS-TLS aggregates along axons [2]: significantly decreased size; also recorded: reduction in amyloid beta treatment dependent G3BP1-associated protein aggregates

Source: patent US20230190887A1, “TARGETING G3BP AGGREGATION TO PREVENT NEURODEGENERATION” (priority 2019, published 2023)
